Reference: the supplement of paper PMC10307832

Assays:
Assay in all cases: relative viability (nuclei count vs DMSO), 5 days (fraction); higher = more cells survive
NCI-H1648 = system: NCI-H1648
Outline: (§1)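 Lung cancer cell lines were seeded in 1536-well plates and dosed by pin tool the next day, with either a single drug or a fixed anchor-drug dose combined with five library-drug doses (not always all listed) spaced in √10 steps. Five days later, one step fixed the cells and stained their nuclei (final 0.05% Triton X-100, 1% formaldehyde, 1 ug/ml Hoechst), and nuclei were counted on 4× images. Relative viability is the nuclei count in treated wells divided by the count in vehicle wells, and each value is the median of duplicate plates.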

HARA = system: HARA
Outline: as §1

PC-14 = system: PC-14
Outline: as §1

NCI-H460 = system: NCI-H460
Outline: as §1

HCC-366 = system: HCC-366
Outline: as §1

HCC-15 = system: HCC-15
Outline: as §1

A-427 = system: A-427
Outline: as §1

NCI-H2023 = system: NCI-H2023
Outline: as §1

COR-L23 = system: COR-L23
Outline: as §1

NCI-H1915 = system: NCI-H1915
Outline: as §1

NCI-H727 = system: NCI-H727
Outline: as §1

HCC-78 = system: HCC-78
Outline: as §1

COR-L 105 = system: COR-L 105
Outline: as §1

NCI-H3122 = system: NCI-H3122
Outline: as §1

NCI-H1437 = system: NCI-H1437
Outline: as §1

LK-2 = system: LK-2
Outline: as §1

NCI-H1666 = system: NCI-H1666
Outline: as §1

NCI-H2405 = system: NCI-H2405
Outline: as §1

NCI-H1944 = system: NCI-H1944
Outline: as §1

HCC-44 = system: HCC-44
Outline: as §1

LCLC-97TM1 = system: LCLC-97TM1
Outline: as §1

201T = system: 201T
Outline: as §1

NCI-H1975 = system: NCI-H1975
Outline: as §1

Compound Nc1cccc2c1CN(C1CCC(=O)NC1=O)C2=O (centres undefined) [Lenalidomide] + CC(=O)Nc1cccc(-n2c(=O)n(C3CC3)c(=O)c3c(Nc4ccc(I)cc4F)n(C)c(=O)c(C)c32)c1 [Trametinib] (partner 0.02 µM) has a relative viability (NCI-H1648; first compound 0.253 µM) of 0.556, a relative viability (NCI-H1648; first compound 2.53 µM) of 0.597 and a relative viability (NCI-H1648; first compound 8 µM) of 0.476. It also gave a relative viability (HARA; first compound 0.253 µM) of 0.715, a relative viability (HARA; first compound 2.53 µM) of 0.542 and a relative viability (HARA; first compound 8 µM) of 1.04. It also gave a relative viability (PC-14; first compound 0.253 µM) of 0.839, a relative viability (PC-14; first compound 0.8 µM) of 0.722 and a relative viability (PC-14; first compound 2.53 µM) of 0.981. The relative viability (PC-14; first compound 8 µM) was 0.779, the relative viability (NCI-H460; first compound 0.253 µM) was 0.0785 and the relative viability (NCI-H460; first compound 0.8 µM) was 0.13. The relative viability (NCI-H460; first compound 2.53 µM) was 0.127, the relative viability (NCI-H460; first compound 8 µM) was 0.19 and the relative viability (HCC-366; first compound 0.253 µM) was 0.33. It also gave a relative viability (HCC-366; first compound 0.8 µM) of 0.353, a relative viability (HCC-366; first compound 2.53 µM) of 0.386 and a relative viability (HCC-366; first compound 8 µM) of 0.264. It also gave a relative viability (HCC-15; first compound 0.253 µM) of 0.412, a relative viability (HCC-15; first compound 0.8 µM) of 0.427 and a relative viability (HCC-15; first compound 2.53 µM) of 0.377. The relative viability (HCC-15; first compound 8 µM) was 0.334, the relative viability (A-427; first compound 0.253 µM) was 0.731 and the relative viability (A-427; first compound 0.8 µM) was 0.724. For the same compound, the relative viability (A-427; first compound 2.53 µM) was 0.825, the relative viability (A-427; first compound 8 µM) was 0.765 and the relative viability (NCI-H2023; first compound 0.253 µM) was 0.554. For the same compound, the relative viability (NCI-H2023; first compound 0.8 µM) was 0.584, the relative viability (NCI-H2023; first compound 2.53 µM) was 0.444 and the relative viability (NCI-H2023; first compound 8 µM) was 0.504. The relative viability (COR-L23; first compound 0.253 µM) was 0.613, the relative viability (COR-L23; first compound 0.8 µM) was 0.677 and the relative viability (COR-L23; first compound 2.53 µM) was 0.678. For the same compound, the relative viability (COR-L23; first compound 8 µM) was 0.508, the relative viability (NCI-H1915; first compound 0.253 µM) was 0.306 and the relative viability (NCI-H1915; first compound 0.8 µM) was 0.319. It also gave a relative viability (NCI-H1915; first compound 2.53 µM) of 0.323, a relative viability (NCI-H1915; first compound 8 µM) of 0.283 and a relative viability (NCI-H727; first compound 0.253 µM) of 0.383. The relative viability (NCI-H727; first compound 0.8 µM) was 0.378, the relative viability (NCI-H727; first compound 2.53 µM) was 0.35 and the relative viability (NCI-H727; first compound 8 µM) was 0.376. It also gave a relative viability (HCC-78; first compound 0.253 µM) of 0.728, a relative viability (HCC-78; first compound 0.8 µM) of 0.633 and a relative viability (HCC-78; first compound 2.53 µM) of 0.692. For the same compound, the relative viability (HCC-78; first compound 8 µM) was 0.822, the relative viability (COR-L 105; first compound 0.253 µM) was 0.493 and the relative viability (COR-L 105; first compound 0.8 µM) was 0.471. The relative viability (COR-L 105; first compound 2.53 µM) was 0.462, the relative viability (COR-L 105; first compound 8 µM) was 0.416 and the relative viability (NCI-H3122; first compound 0.253 µM) was 0.234. The relative viability (NCI-H3122; first compound 0.8 µM) was 0.246, the relative viability (NCI-H3122; first compound 2.53 µM) was 0.253 and the relative viability (NCI-H3122; first compound 8 µM) was 0.205. It also gave a relative viability (NCI-H1437; first compound 0.253 µM) of 0.523, a relative viability (NCI-H1437; first compound 0.8 µM) of 0.365 and a relative viability (NCI-H1437; first compound 2.53 µM) of 0.611. The relative viability (NCI-H1437; first compound 8 µM) was 0.486, the relative viability (LK-2; first compound 0.253 µM) was 0.772 and the relative viability (LK-2; first compound 0.8 µM) was 0.747. The relative viability (LK-2; first compound 2.53 µM) was 0.746, the relative viability (LK-2; first compound 8 µM) was 0.717 and the relative viability (NCI-H1666; first compound 0.253 µM) was 0.859. The relative viability (NCI-H1666; first compound 0.8 µM) was 0.765, the relative viability (NCI-H1666; first compound 2.53 µM) was 0.93 and the relative viability (NCI-H1666; first compound 8 µM) was 0.784. For the same compound, the relative viability (NCI-H2405; first compound 0.253 µM) was 0.648, the relative viability (NCI-H2405; first compound 0.8 µM) was 0.657 and the relative viability (NCI-H2405; first compound 2.53 µM) was 0.654. It also gave a relative viability (NCI-H2405; first compound 8 µM) of 0.546, a relative viability (NCI-H1944; first compound 0.253 µM) of 0.385 and a relative viability (NCI-H1944; first compound 2.53 µM) of 0.427. The relative viability (NCI-H1944; first compound 8 µM) was 0.395, the relative viability (HCC-44; first compound 0.253 µM) was 1.08 and the relative viability (HCC-44; first compound 0.8 µM) was 0.829. The relative viability (HCC-44; first compound 2.53 µM) was 1.11, the relative viability (HCC-44; first compound 8 µM) was 1.05 and the relative viability (LCLC-97TM1; first compound 0.253 µM) was 0.183. For the same compound, the relative viability (LCLC-97TM1; first compound 0.8 µM) was 0.239, the relative viability (LCLC-97TM1; first compound 2.53 µM) was 0.212 and the relative viability (LCLC-97TM1; first compound 8 µM) was 0.159. For the same compound, the relative viability (201T; first compound 0.253 µM) was 0.719, the relative viability (201T; first compound 0.8 µM) was 0.754 and the relative viability (201T; first compound 2.53 µM) was 0.762. For the same compound, the relative viability (201T; first compound 8 µM) was 0.713, the relative viability (NCI-H1975; first compound 0.253 µM) was 0.388 and the relative viability (NCI-H1975; first compound 0.8 µM) was 0.201. The relative viability (NCI-H1975; first compound 2.53 µM) was 0.36 and the relative viability (NCI-H1975; first compound 8 µM) was 0.234.
